In patent US4323517A, “Methoxy and methylsulfinylthiolesters” (Troponwerke GmbH & Co. KG, priority 1977, dated 1982):
“Also recorded” adds a separate entry of the source. Like-named read-outs stand apart in the source and are kept apart here.

What was measured:
[1] = test system: paw oedemas, caused by the administration of kaolin; assay: kaolin paw oedema, antiphlogistic action in rats; type: in vivo
Text: The anti-inflammatory action was detected in paw oedemas, caused by the administration of kaolin, in rats.
In addition to the effects described for compound A, it could also be shown that the other derivatives (see Table 2) likewise have a powerful anti-inflammatory action. The minimum doses which still cause a clearly detectable effect on the paw oedema after the administration of kaolin are listed in Table 2.
Rats, kaolin oedema, intramuscularly, n = 10/dose group

[2] = stomach ulcer (ulcerogenic action) in rats; details: rat, in vivo
formalin oedema = assay: formalin oedema; type: in vivo; details: im; intramuscularly
Text: (§1) Furthermore, A also has an action on other inflammation models. The ED50 values which follow are found (mg/kg; intramuscularly): formalin oedema 5.4, albumin oedema 6.3, yeast oedema 27.4, concanavalin oedema 3.4 and trypsin oedema 2.0.

albumin oedema = assay: albumin oedema; type: in vivo; details: im; intramuscularly
Text: as §1

yeast oedema = assay: yeast oedema; type: in vivo; details: im; intramuscularly
Text: as §1

concanavalin oedema = assay: concanavalin oedema; type: in vivo; details: im; intramuscularly
Text: as §1

trypsin oedema = assay: trypsin oedema; type: in vivo; details: im; intramuscularly
Text: as §1

rats = details: intramuscular
in vivo = details: rat
[3] = comparison of the therapeutic range; details: rat, in vivo
kaolin oedema = assay: comparison of the therapeutic range
[4] = test system: paw oedemas, caused by the administration of kaolin; assay: kaolin paw oedema, antiphlogistic action in rats; type: in vivo; details: Rattus norvegicus, read-out: Kaolin oedema ED50
[5] = Rattus norvegicus, im, rats, intramuscularly, n = 10/dose group, read-out: ED50 (kaolin oedema)
[6] = Rattus norvegicus, im, rats, kaolin oedema, intramuscularly, n = 10/dose group, read-out: Inhibition in % of the controls
[7] = po, Therapeutic range LD50 / ED50 kaolin oedema, rats

CSCC(C)C(=O)SC (centres unmarked) [CH3 SCH2 CH(CH3)COSCH3, S-methyl 3-methylthio-2-propylcarbonylthioate]
ED50 [1, 5]: 4.5 mg/kg
inhibition in vivo at 0.65 mg/kg ([1]; Rattus norvegicus, im, rats, kaolin oedema, intramuscularly, dose 0.65 mg/kg, n = 10/dose group, read-out: Inhibition in % of the controls): 16.6%

CCCSCCC(=O)SCCC [C3 H7 SCH2 CH2 COSC3 H7, S-Propyl 3-propylthiopropionothioate]
inhibition in vivo at 25 mg/kg [1, 6]: 68.5%

CCOC(=O)CCSC [CH3 SCH2 CH2 COOC2 H5, Ethyl 3-methylthiopropionate]
inhibition in vivo at 25 mg/kg [1, 6]: 16%

CCC(C)SC(=O)CCS(=O)(=O)C(C)CC (centres unmarked) [S-sec.-Butyl 3-sec.-butylsulphonylpropionothioate]
inhibition in vivo at 12.5 mg/kg [1, 6]: 33%

CCC(C)SCCC(=O)SC(C)CC (centres unmarked) [S-sec.-Butyl 3-sec.-butylthiopropionothioate]
inhibition in vivo at 50 mg/kg [1, 6]: 72%

CC(C)CSC(=O)CC[S+]([O-])CC(C)C (centres unmarked) [S-isobutyl 3-isobutylsulphinylpropionothioate]
inhibition in vivo at 12.5 mg/kg [1, 6]: 17.9%

O=C(O)CCS [HSCH2 CH2 COOH, 3-mercaptopropionic acid]
inhibition in vivo at 20 mg/kg ([1]; Rattus norvegicus, im, rats, kaolin oedema, intramuscularly, dose 20.00 mg/kg, n = 10/dose group, read-out: Inhibition in % of the controls): 8.5%

CC(C)SC(=O)CC[S+]([O-])C(C)C (centres unmarked) [(CH3)2 CHSOCH2 CH2 COSCH(CH3)2, S-Isopropyl 3-isopropylsulphinylpropionothioate]
inhibition in vivo at 12.5 mg/kg [1, 6]: 22.7%

CC(C)CSC(=O)CCS(=O)(=O)CC(C)C [(CH3)2 CHCH2 SO2 CH2 CH2 COSCH2 CH(CH3)2, S-Isobutyl 3-isobutylsulphonylpropionothioate]
inhibition in vivo at 12.5 mg/kg [1, 6]: 42%

CCC(C)SC(=O)CC[S+]([O-])C(C)CC (centres unmarked) [S-sec.-Butyl 3-sec.-butylsulphinylpropionothioate]
inhibition in vivo at 100 mg/kg [1, 6]: 90.5%

CC=CC(=O)SC [CH3 CH=CHCOSCH3, S-methyl crotonylthioate]
inhibition in vivo at 12.5 mg/kg [1, 6]: 16%

CCCSC(=O)CC[S+]([O-])CCC (centres unmarked) [C3 H7 SOCH2 CH2 COSC3 H7, S-Propyl 3-propylsulphinylpropionothioate]
inhibition in vivo at 100 mg/kg [1, 6]: 73%

CC(C)(C)SCCC(=O)SC(C)(C)C [(CH3)3 CSCH2 CH2 COSC(CH3)3, S-tert.-butyl 3-tert.-butylthiopropionothioate]
inhibition in vivo at 12.5 mg/kg [1, 6]: 23.3%

CSC(=O)CC[S+](C)[O-] (centres unmarked) [CH3 SOCH2 CH2 COSCH3, S-Methyl 3-methylsulphinylpropionothioate]
ED50 [1, 5]: 1.8 mg/kg
inhibition in vivo at 3.12 mg/kg ([1]; Rattus norvegicus, im, rats, kaolin oedema, intramuscularly, dose 3.12 mg/kg, n = 10/dose group, read-out: Inhibition in % of the controls): 10.2%

CC(C)CSCCC(=O)SCC(C)C [S-Isobutyl 3-isobutylthiopropionothioate]
inhibition in vivo at 50 mg/kg [1, 6]: 77.2%

C=CC(=O)SCC [CH2 =CHCOSC2 H5, S-ethyl acrylthioate]
ED50 [1, 5]: 1.5 mg/kg
inhibition in vivo at 0.32 mg/kg ([1]; Rattus norvegicus, im, rats, kaolin oedema, intramuscularly, dose 0.32 mg/kg, n = 10/dose group, read-out: Inhibition in % of the controls): 18.5%

CCCCSC(=O)CC[S+]([O-])CCCC (centres unmarked) [C4 H9 SOCH2 CH2 COSC4 H9, S-Butyl 3-butylsulphinylpropionothioate]
inhibition in vivo at 100 mg/kg [1, 6]: 73%

CCCCSCCC(=O)SCCCC [C4 H9 SCH2 CH2 COSC4 H9, S-Butyl 3-butylthiopropionothioate]
inhibition in vivo at 50 mg/kg [1, 6]: 77.2%

CSCCC(=O)SC [A, S-methyl 3-methylthiopropionothioate]
ED50 ([1]; Rattus norvegicus, im, rats, intramuscular, read-out: Kaolin oedema ED50): 4.85 µmol/kg
antiphlogistic (anti-inflammatory) action, in words ([1]; rat, in vivo): very pronounced antiphlogistic action
TD50 ([2]; im): 256 µmol/kg
ED50 (formalin oedema): 5.4 mg/kg
ED50 (albumin oedema): 6.3 mg/kg
ED50 (yeast oedema): 27.4 mg/kg
ED50 (concanavalin oedema): 3.4 mg/kg
ED50 (trypsin oedema): 2 mg/kg
LD50 (rats): 4,587 μmols/kg
LD50 (in vivo; im): 4590 µmol/kg
selectivity ratio [3]: 52.9
selectivity ratio ([3]; Therapeutic range LD50 / ED50 kaolin oedema, rats, intramuscular): 946
therapeutic range, in words (kaolin oedema; rat, in vivo): wide therapeutic range; also recorded: unexpected favourable therapeutic range

O=C(O)c1ccccc1Nc1cccc(C(F)(F)F)c1 [Flufenamic acid]
TD50 ([2]; po): 55.1 µmol/kg
ED50 ([4]; rats, oral): 36.2 µmol/kg
LD50 (in vivo; po): 2040 µmol/kg
selectivity ratio [3, 7]: 56.3
Therapeutic range ED50 ulcer / ED50 kaolin oedema (kaolin oedema; rats, oral): 1.52

C=C(C)C(=O)SC [CH2 =C(CH3)COSCH3, S-methyl methacrylthioate]
inhibition in vivo at 5 mg/kg ([1]; Rattus norvegicus, im, rats, kaolin oedema, intramuscularly, dose 5.00 mg/kg, n = 10/dose group, read-out: Inhibition in % of the controls): 21.8%

CCCCC1C(=O)N(c2ccccc2)N(c2ccccc2)C1=O [Phenylbutazone]
TD50 ([2]; po): 182 µmol/kg
ED50 ([4]; rats, oral): 122 µmol/kg

CCSCCC(=O)SCC [C2 H5 SCH2 CH2 COSC2 H5, S-Ethyl 3-ethylthiopropionothioate]
ED50 [1, 5]: 3.75 mg/kg
inhibition in vivo at 2.5 mg/kg ([1]; Rattus norvegicus, im, rats, kaolin oedema, intramuscularly, dose 2.50 mg/kg, n = 10/dose group, read-out: Inhibition in % of the controls): 58.2%

COc1ccc2c(c1)c(CC(=O)O)c(C)n2C(=O)c1ccc(Cl)cc1 [Indometacin]
TD50 ([2]; rats, oral, read-out: Stomach ulcer ED50): 11.1 µmol/kg
ED50 ([4]; po): 2.9 µmol/kg
LD50 (in vivo; po): 68 µmol/kg
selectivity ratio ([3]; po, Therapeutic range ED50 ulcer / ED50 kaolin oedema, rats): 3.81
selectivity ratio [3, 7]: 23.4

CC(C)SCCC(=O)SC(C)C [(CH3)2 CHSCH2 CH2 COSCH(CH3)2, S-Isopropyl 3-isopropylthiopropionothioate]
inhibition in vivo at 25 mg/kg [1, 6]: 63.2%
